Measurements published in US20190216886A1, “Topical Compositions And Methods For Treating Wounds” (priority 2014, published 2019).

How the values were obtained:
S. pyogenes = assay: in vitro zone inhibition (disk diffusion) study; type: cell-based, Streptococcus pyogenes; conditions: for Mean inhibition diameter: S. pyogenes (n = 6), 6 mm paper disks on Mueller Hinton Agar; for antimicrobial activity, in words: S. pyogenes, zone inhibition
Protocol: (§1) In vitro culture and sensitivity studies were performed on common microbes seen in acute and stubborn chronic wound cases. The particular microbes tested included streptococcus pyogenes, staphylococcus aureus, methicillin resistant staphylococcus aureus (MRSA) and, a fungus, candida albicans. Ten different strains of MRSA bacteria obtained from infected hospital patients were tested.
(§2) The different microbes were inoculated on Mueller Hinton Agar media in culture plates. […] However, genetically mutated resistant strains of staphylococcus have evolved and are now the cause of numerous infections because of their resistant nature to most antibiotics.

C. albicans = assay: in vitro zone inhibition (disk diffusion) study; type: cell-based, Candida albicans; conditions: for Mean inhibition diameter: C. albicans (n = 6), 6 mm paper disks on Mueller Hinton Agar; for antimicrobial activity, in words: C. albicans (fungi), zone inhibition
Protocol: as §1, §2

S. aureus = assay: in vitro zone inhibition (disk diffusion) study; type: cell-based, Staphylococcus aureus; conditions: for Mean inhibition diameter: S. aureus (n = 6), 6 mm paper disks on Mueller Hinton Agar; for antimicrobial activity, in words: non-resistant S. aureus, zone inhibition
Protocol: as §1, §2

MRSA = assay: in vitro zone inhibition (disk diffusion) study; type: cell-based, methicillin resistant staphylococcus aureus; conditions: for Mean inhibition diameter: MRSA (10 strains, n = 30), 6 mm paper disks on Mueller Hinton Agar; for zone of inhibition, visual result: MRSA strain number 11, FIG. 7; for antimicrobial activity, in words: MRSA, zone inhibition
Protocol: as §1, §2

tinea pedis infection = assay: treatment of a patient with chronic tinea pedis; type: in vivo, human; conditions: person, oral, after a month's treatment
Protocol: Twenty patients with a variety of chronic wound conditions that included diabetic foot ulcers, decubitus pressure ulcers, surgical wounds, toe fungus were treated for eight weeks by wound care physicians with a compounded topical pharmaceutical composition made from compendial ingredients.
Specifically, the test pharmaceutical composition for these studies was prepared by compounding: 25 parts 1% silver sulfadiazine cream: 25 parts 20% zinc oxide ointment; 15 parts triple antibiotic ointment; 25 parts 2% lidocaine viscous; 5 parts Vitamin E Oil (as 200 IU/gm final); and 5 parts Coenzyme Q10 (as 15 mg/gm final).
A case of tinea pedis was also reported in one of the patients. A person who had been suffering from chronic tinea pedis infection (athlete's foot) for over 10 months had tried numerous over-the-counter remedies with no success. They were prescribed the oral antibiotic terbinafine. […] The terbinafine was discontinued and the patient was placed on the test pharmaceutical formulation of the invention on Apr. 14, 2014. They returned for a follow-up with their physician about one week later on Apr. 22, 2014. […] The patient returned for a second follow up on Apr. 29, 2014 (FIG. 5B). The physician's report about 2 weeks after beginning treatment states: “Patient reports foot no longer itchy. Skin healing. […] Foot dry, healthy new tissue visualized”. […]

Structure (SMILES): Cc1onc(-c2ccccc2)c1C(=O)N[C@@H]1C(=O)N2[C@@H]1SC(C)(C)[C@@H]2C(=O)O [Oxacillin, oxacillin]
- Mean inhibition diameter (S. pyogenes): 30.2 mm
- antimicrobial activity, in words (S. pyogenes): showed antimicrobial activity
- Mean inhibition diameter (C. albicans): 0.0 mm
- Mean inhibition diameter (S. aureus): 20.3 mm
- antimicrobial activity, in words (S. aureus): showed antimicrobial activity
- Mean inhibition diameter (MRSA): 0.0 mm
- zone of inhibition, visual result (MRSA): lack of any zone inhibition

Structure (SMILES): CN[C@H](CC(C)C)C(=O)N[C@H]1C(=O)N[C@@H](CC(N)=O)C(=O)N[C@H]2C(=O)N[C@H]3C(=O)N[C@H](C(=O)N[C@H](C(=O)O)c4cc(O)cc(O)c4-c4cc3ccc4O)[C@H](O)c3ccc(c(Cl)c3)Oc3cc2cc(c3O[C@@H]2O[C@H](CO)[C@@H](O)[C@H](O)[C@H]2O[C@H]2C[C@](C)(N)[C@H](O)[C@H](C)O2)Oc2ccc(cc2Cl)[C@H]1O [Vancomycin, vancomycin]
- Mean inhibition diameter (S. pyogenes): 22.2 mm
- antimicrobial activity, in words (S. pyogenes): potent activity
- antimicrobial activity, in words (C. albicans): not effective
- Mean inhibition diameter (C. albicans): 0.0 mm
- Mean inhibition diameter (S. aureus): 17.3 mm
- antimicrobial activity, in words (S. aureus): potent activity
- Mean inhibition diameter (MRSA): 18.9 mm
- zone of inhibition, visual result (MRSA): clear circular area of inhibition zone
- antimicrobial activity, in words (MRSA): potent activity

Structure (SMILES): COc1cccc(OC)c1C(=O)N[C@@H]1C(=O)N2[C@@H]1SC(C)(C)[C@@H]2C(=O)O [methicillin]
- antimicrobial activity, in words (C. albicans): no activity
- antimicrobial activity, in words (MRSA): no activity

Structure (SMILES): CN(C/C=C/C#CC(C)(C)C)Cc1cccc2ccccc12 [terbinafine]
- tinea pedis infection outcome (tinea pedis infection): no sign of reduction in the infection
